# Measurements taken from article PMC7926627, “Fine-Tuning the Biological Profile of Multitarget Mitochondriotropic Antioxidants for Neurodegenerative Diseases” (Antioxidants, 2021).
# What was measured:
# [1] = biological target: T1, eqBChE (equine butyrylcholinesterase) (Equus caballus, UniProt P81908); experiment: biochemical
# T1 construct: butyrylcholinesterase (eqBuChE, E.C. 3.1.1.8, from equine serum); purchased Sigma Aldrich; host or cells: equine serum
# Protocol: The eeAChE and eqBChE inhibitory activities of the compounds under study were determined following the Ellman’s method [32, 33]
# Substrate solutions (ATCI or BCTI) were prepared in deionized water (conductivity ˂ 0.1 µS.cm-
# Evaluation of eel acetylcholinesterase and equine butyrylcholinesterase inhibitory
# The eeAChE and eqBChE inhibitory activities of the compounds under study were evaluated following the Ellman’s method [1, 2]. Briefly, a mixture containing sodium phosphate buffer, enzyme (final concentration: eeAChE 0.05 U/mL and eeBChE 0.05 U/mL), DTNB (final concentration: 400 µM) and the test compounds/reference inhibitors were preincubated for 5 minutes at 30 °C in a 96-well microplate (BRANDplates, pureGradeTM, BRAND GMBH, Wertheim, Germany). In control experiments, sodium phosphate buffer was used instead of the
# ºC in a microplate reader (BioTek Synergy HT from BioTek Instruments, Winooski, VT, USA).
# The rates of the substrate enzymatic hydrolysis were determined, normalized and plotted against the respective inhibitor concentration. IC50 values were obtained from the dose-response curves
# and were expressed as mean ± standard deviation. IC50 values were determined in at least three
# independent experiments, each performed at least in triplicates.
# [2] = Chromatographic hydrophobicity index by gradient RP-HPLC at pH 2.3
# Protocol: Chromatographic hydrophobicity indexes (CHIs) at pH 2.3 were determined using an experimental protocol described elsewhere [45, 46] and included in the supplementary information.
# Evaluation of the chromatographic hydrophobicity index
# Chromatographic hydrophobicity indexes (CHIs) values were determined using the
# retention times (tR) of samples and a mixture of reference compounds. The data was acquired on
# a Shimadzu high-performance liquid chromatograph SPD-M20A system (Shimadzu, Kyoto,
# Japan) with a Luna C18 (2) column (Phenomenex, CA, USA) 150×4.6 mm, 5 µm. In CHI
# determinations at pH 2.3, mobile phase A was aqueous solution of acetic acid 1 % (v/v) (pH 2.3),
# and mobile phase B was acetonitrile. The following gradient program was applied: 1 mL/min
# Calibration plots were obtained using a mixture of the following compounds:
# paracetamol, theophylline, caffeine, benzimidazole, colchicine, carbamazepine, indole,
# propiophenone, butyrophenone, valerophenone, and heptanophenone (Table S1, Figure S2).
# hydrophobicity index (CHI) values were calculated as previously described [13, 14].
# [3] = Differential pulse voltammetry (DPV); assay type: physicochemical; details: pH 7.4, glassy carbon electrode; for Ep (redox potential): first anodic peak
# Protocol: DPV experiments were performed as described in literature (see supplementary information).
# 1.4. Electrochemical measurements
# Voltammetric studies were carried out using an Autolab PGSTAT 12 potentiostat/galvanostat (Metrohm-Autolab, Netherlands) and one compartment glass electrochemical cell. The voltammetric data were acquired at room temperature using a three-electrode system: a glassy carbon working electrode (GCE) (d = 2 mm), a platinum wire counter electrode and an Ag/AgCl saturated KCl reference electrode (Metrohm, Switzerland). The working electrode was polished manually with an aqueous slurry of alumina powder (BDH Chemicals, VWR, USA) on a microcloth pad and rinsed with water before use. A Crison pH-meter with glass electrode was used for the pH measurements (Crison, Barcelona, Spain).
# Differential pulse voltammetry (DPV) experiments were performed as described elsewhere. Test solutions were prepared directly in the electrochemical cell, by diluting ethanolic solutions of the compounds under study (10 mM, 100 μL) in the supporting electrolyte (10 mL) to obtain a final concentration of 100 μM. The scan rate used in differential pulse voltammetry (DPV) was 5 mV.s−1.
# All reagents used were of analytical grade or of the highest grade available. Neutral red (NR) solution, resazurin, Dulbecco’s Modified Eagle’s Medium (DMEM) with 4.5 g/L glucose, retinoic acid, 12-O-tetradecanoylphorbol-13-acetate (TPA), 2’,7’-dichorofluorescein diacetate (DCFH-DA), Rhodamine 123 (RHO 123) and zosuquidar (ZOS) were obtained from Sigma Aldrich. Reagents used in cell culture such as heat-inactivated fetal bovine serum (FBS), antibiotic (10,000 U/mL penicillin, 10,000 μg/mL streptomycin), MEM Non-Essential Amino Acids solution (100×) (MEM NEAA), Hanks’ balanced salt solution (HBSS) with or without calcium and magnesium (HBSS(+/+) or HBSS (-/-), respectively) and 0.25% trypsin/1 mM ethylenediamine tetraacetic acid (EDTA) were purchased from Gibco Laboratories (Lenexa, KS, USA). Dimethylsulfoxide (DMSO), absolute ethanol, sodium bicarbonate and acetic acid were obtained from Merck (Darmstadt, Germany). Triton™ X-100 detergent solution was acquired from Thermo Fisher Scientific (Waltham, MA, USA).
# Human neuroblastoma SH-SY5Y cells were routinely cultured into […] and maintained in DMEM with 4.5 g/L glucose, supplemented with 10 % heat-inactivated FBS (v/v), 1 % MEM NEAA (v/v) and 1% penicillin/streptomycin (v/v). Cells were maintained at 37 °C in a humidified, 5% CO2−95% air atmosphere, and the cell culture medium was changed every 2-3
# [4] = system: differentiated SH-SY5Y cells; experiment: Resazurin reduction assay (cytotoxicity); assay type: cell-based, human; details: 24 h
# Protocol: For cytotoxicity studies, differentiated SH-SY5Y cells were incubated with increasing concentrations of the test compounds (0.20–100 µM) for 24 h. Controls were treated with culture media containing 0.1% DMSO. Cell viability was estimated using two different methods: resazurin reduction assay and NR uptake assay. […]
# days. The cultures were passaged once a week by trypsinization (0.25 % trypsin/1 mM EDTA).
# To avoid phenotypic changes, the cells used for all experiments were taken between 19th and 28th passages. Cells were differentiated as described previously by Fernandes et al.. Briefly, SH-SY5Y cells were seeded onto 96-well plates at a density of 25,000 cells/cm2 in cell culture medium with trans-retinoic acid (RA) (final concentration of 10 µM) and incubated for 3 days at 37 °C in a humidified, 5% CO2−95% air atmosphere. The cell culture medium was then removed and replaced with medium supplemented with 12-O-tetradecanoylphorbol-13-acetate (TPA) (final concentration 80 nM), and cells were incubated for 3 days. Stock solutions of RA (10 mM) and TPA (80 µM) were prepared in DMSO.
# 1.5.3. Cytotoxicity assays
# 1.5.3.1. Resazurin reduction assay
# Resazurin is a non-fluorescent, non-toxic water-soluble dye able to permeate through cell […]
# highly fluorescent resorufin [8, 9]. Since the conversion of resazurin into resorufin occurs mostly in mitochondria, the amount of resorufin produced can be used as indicator of metabolic activity. The quantity of resorufin production is proportional to the number of viable cells in culture and can be quantified fluorometrically or colorimetrically.
# Resazurin reduction assay was performed as previously described by Fernandes et al..
# Briefly, after the 24 h incubation periods with the test compounds, the cell culture medium was removed and replaced with fresh culture medium with resazurin (10 μg/mL) prepared in cell culture medium. Differentiated SH-SY5Y cells were incubated for 2 h at 37 °C in a humidified 5% CO2−95% air atmosphere. Then, the fluorescence was read in a multiwell microplate reader (PowerWave XS from BioTek Instruments, Vermont, US), using an excitation wavelength of 540 nm and an emission wavelength of 590 nm. The results were expressed as the percentage of resazurin reduction relative to that of the control (non-treated) cells [resazurin reduction (% of […]
# 1.5.3.2. Neutral red uptake assay
# The neutral red (NR) uptake assay is based on the ability of viable cells to incorporate the supravital dye NR and retain it inside the lysosomes. NR uptake assay was performed as previously described by Fernandes et al. Briefly, after the 24 h incubation periods with the test compounds, the cell culture medium was removed and NR solution ([…]) in fresh cell culture medium was added. Differentiated SH-SY5Y cells and Caco-2 cells were incubated for 2 h and 1 h, respectively, at 37 °C in a humidified, 5% CO2−95% air atmosphere. Then, the cell culture medium was removed and replaced by ethanol absolute/distilled water (1:1) with 5 % acetic acid to liberate the dye from the viable cells. The absorbance was measured at 540 nm in a […]
# T1 sequence (P81908 whole entry): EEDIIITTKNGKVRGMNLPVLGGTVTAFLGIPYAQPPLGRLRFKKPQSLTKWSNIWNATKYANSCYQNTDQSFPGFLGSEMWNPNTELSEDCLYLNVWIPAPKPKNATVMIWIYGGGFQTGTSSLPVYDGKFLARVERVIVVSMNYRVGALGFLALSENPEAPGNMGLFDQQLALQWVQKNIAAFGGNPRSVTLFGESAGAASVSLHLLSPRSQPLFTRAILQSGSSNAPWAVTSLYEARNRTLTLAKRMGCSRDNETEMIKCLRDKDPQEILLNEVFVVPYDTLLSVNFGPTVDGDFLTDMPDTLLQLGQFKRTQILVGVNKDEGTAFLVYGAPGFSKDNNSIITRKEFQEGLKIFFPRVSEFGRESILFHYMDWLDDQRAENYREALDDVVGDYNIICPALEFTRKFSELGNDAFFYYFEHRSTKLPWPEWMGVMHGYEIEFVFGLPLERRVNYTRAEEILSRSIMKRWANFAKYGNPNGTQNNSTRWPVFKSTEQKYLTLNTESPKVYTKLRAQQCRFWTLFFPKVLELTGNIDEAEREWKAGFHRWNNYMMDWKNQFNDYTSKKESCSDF
Compound,IC50 [1],SI (1): eqBChE selectivity index = IC50(eeAChE)/IC50(eqBChE) [1],CHI [2],"Ep (redox potential), second overlapped anodic peak [3]",Ep (redox potential) [3],concentrations in which the resazurin reduction was significantly decreased [4],resorufin fluorescence (% of control) ([4]; at concentrations above 25 µM),resorufin fluorescence (% of control) ([4]; at concentrations above 12.5 µM),effect on resazurin reduction ([4]; concentrations up to 100 µM)
"O=C(/C=C/C=C/c1ccc2c(c1)OCO2)NCCCC[P+](c1ccccc1)(c1ccccc1)c1ccccc1.[Br-] [Compound 2, (4-((2E,4E)-5-(Benzo[d][1,3]dioxol-5-yl)penta-2,4-dienamido)butyl)triphenylphosphonium bromide]",28.2 ± 1.4 nM,226,42.8,1070 mV,942 mV,≥ 50 µM,< 85%,,
"O=C(/C=C/C=C/c1ccc2c(c1)OCO2)NCCCCCC[P+](c1ccccc1)(c1ccccc1)c1ccccc1.[Br-] [Compound 3, (6-((2E,4E)-5-(Benzo[d][1,3]dioxol-5-yl)penta-2,4-dienamido)hexyl)triphenylphosphonium bromide]",17.9 ± 0.9 nM,314,45.8,1083 mV,931 mV,,,< 85%,
"O=C(/C=C/C=C/c1ccc(O)c(O)c1)NCCCC[P+](c1ccccc1)(c1ccccc1)c1ccccc1.[Br-] [Compound 4, (4-((2E,4E)-5-(3,4-Dihydroxyphenyl)penta-2,4-dienamido)butyl)triphenylphosphonium bromide]",61.9 ± 4.2 nM,36,34.4,,125 mV,,,,did not markedly affect
"O=C(/C=C/C=C/c1ccc(O)c(O)c1)NCCCCCC[P+](c1ccccc1)(c1ccccc1)c1ccccc1.[Br-] [Compound 5, (6-((2E,4E)-5-(3,4-Dihydroxyphenyl)penta-2,4-dienamido)hexyl)triphenylphosphonium bromide]",34.1 ± 2.9 nM,62,37.2,,144 mV,≥ 50 µM,< 85%,,
